Measurements reported in US10842151B2, “Small molecule compound for enhancing plant stress resistance” (SHANGHAI INSTITUTES FOR BIOLOGICAL SCIENCES, CHINESE …, priority 2015, dated 2020).

Tests used:
PYL2 + HAB1 = molecular target: T1, PYL2 + HAB1 (Arabidopsis thaliana, UniProt O80992); experiment: AlphaScreen experiment, PYL2 + HAB1; assay type: binding; details: number in brackets; read-out: Half maximum effect concentration EC50 (PYL2 + HAB1)
T1 construct: made in house; host or cells: E. coli BL21 (DE3)
T1 sequence (O80992 14-188 limits assumed): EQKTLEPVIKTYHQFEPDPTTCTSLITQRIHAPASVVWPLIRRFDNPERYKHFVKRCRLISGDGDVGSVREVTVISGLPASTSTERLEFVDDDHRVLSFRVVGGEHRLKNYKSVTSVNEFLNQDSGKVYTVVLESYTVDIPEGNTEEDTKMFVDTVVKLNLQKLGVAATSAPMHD
T1 sequence (Q9CAJ0 172-511 partner limits assumed): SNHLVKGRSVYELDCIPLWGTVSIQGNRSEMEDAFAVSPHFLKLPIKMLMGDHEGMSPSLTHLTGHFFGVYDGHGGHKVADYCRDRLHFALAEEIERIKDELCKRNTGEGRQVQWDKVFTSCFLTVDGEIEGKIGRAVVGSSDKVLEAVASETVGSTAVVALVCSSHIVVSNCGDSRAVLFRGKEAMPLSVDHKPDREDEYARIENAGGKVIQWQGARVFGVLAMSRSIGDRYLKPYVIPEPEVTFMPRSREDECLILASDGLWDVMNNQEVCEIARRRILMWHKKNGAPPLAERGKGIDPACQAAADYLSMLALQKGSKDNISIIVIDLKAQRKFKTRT
Description: After incubating for 1.5 hours at room temperature in the dark, it was placed into an Envision Plate Reader (available from Perkin Elmer) under the programmed AlphaScreen procedure for readings.

soybean = experiment: Soil drought experiment, soybean; assay type: in vivo; details: 50 μM
Description: Only one plant was contained in each pot. All soybean plants were long-day cultured at 26° C. Watering was stopped after the plant had three leaves in each of three groups of leaves and the plants with consistent growth were selected for drought treatment. As for corn, watering was stopped during the small trumpet period for drought treatment. […] After a week, the watering was resumed. Soybeans and cotton used in leaf transpiration experiments for compound 0720B were also used for soil drought experiments. Each pot contained only one plant and was filled with the same weight of soil to reduce experimental errors. All of the soybean plants were grown at 26° C. for long-day culture. 16 days after seeding, watering was stopped and the plants with consistent growth were selected for drought treatment. […] Cotton drought experiments were similar to that of the soybean. 23 days after seeding, the watering was stopped, and the plants with consistent growth were selected for drought treatment. […] After 10 days of drought, the photos were taken.

[1] = system: Arabidopsis thaliana Col-0 ecotype seeds; experiment: Seed germination, Col-0; assay type: in vivo; details: 1 μM
Description: Two lines of plant were sown simultaneously on a single medium of 6 cm diameter, with 15 seeds sown for each line and 4 replicates for each compound. […]

[2] = system: Arabidopsis ABA synthesis defective mutant aba2-1; assay type: in vivo, Arabidopsis thaliana; details: 5 μM sprayed; after 4 days; vs DMSO
soybean Williams 82 = experiment: Soybean leaf transpiration experiment (thermal imaging); assay type: in vivo; details: 50 μM sprayed, 0.2 μmol per plant; after three days; vs DMSO
Description: After three weeks of continuous watering, 0.05% tween-20 and corresponding concentrations of DMSO (control)/compound (+)-ABA/0918/1127 were sprayed onto the plants in a single administration with an amount of 1.2 ml/pot. Images were taken daily using the FLIR A655sc thermal imaging camera at the same time before and after spraying. The Williams 82 ecotype was used in soybean leaf transpiration experiments for compounds 0604c, 0918 and 1127 and was long-day cultured at 26° C. After the plants grew and had 3 leaves in each of 3 groups, 0.05% tween-20 and 50 μM DMSO (control)/(+)-ABA/0604c/0918/1127 compounds were sprayed in a single administration with an amount of 4 ml/pot. Images were taken daily using the FLIR A655sc thermal imaging camera at the same time before and after spraying.
Leaf transpiration experiments of soybean and cotton for compound 0720B were carried out at 26° C. with long-day lighting. 16 days and 23 days after sowing, a solution containing 0.1% tween-20 and corresponding concentration of (+)-ABA, or 0720B compound or 0.1% Tween-20 and 0.05% DMSO (control) was sprayed in an amount of 4 ml/pot. Images were taken daily using the FLIR A655sc thermal imaging camera at the same time before and after spraying.

[3] = system: Chinese hamster lung cell (CHL); experiment: In vitro micronucleus experiment; assay type: cell-based; details: -S9; 24 hours
Description: (§1) The test substance used in the experiment was AMX compound 1127.
Firstly, CHL cells used in in vitro micronucleus test were tested in IC50 determination experiment. According to IC50 determination results, in vitro micronucleus test dosage was set. 4 doses of 1 μg/ml, 20 μg/ml, 30 μg/ml and 40 μg/ml were set in total, while a negative control and a positive control were also set. The CHL cells were treated for 24 hours under the condition of −S9 and sections were prepared.
The numbers of monocytes, binucleate cells and multinucleated cells in 500 cells per dose were counted and the cytokinesis-block proliferation index (CBPI) and cytotoxicity at each dose were calculated.

[4] = system: Salmonella typhimurium TA98 and TA100; experiment: Bacterial reverse mutation experiment; assay type: cell-based; details: all doses; -S9
Description: as §1
Two strains of Salmonella typhimurium, TA98 and TA100, were used in the bacterial reverse mutation experiment. The experiment was carried out by using standard plate incorporation method under a condition of non-metabolic activation system (−S9). There were totally 7 doses of […] as well as a negative control and a positive control.

In the case of `CCCN1C(=O)CCc2cc(NS(=O)(=O)Cc3c(F)c(F)c(C)c(F)c3F)ccc21` [Compound 1127], the EC50 (PYL2 + HAB1) is reported as 20 nM, the growth (soybean; a week of drought, one month after rewatering) is reported as “grew significantly better than the plants sprayed with DMSO (control) and sprayed with 50 μM ABA” and the survival rate (soybean; after rewatering) is reported as “higher than that in the above two groups”. For the same compound, the “inhibition effect on germination of Col-0 ecotype seeds compared with control compound” value [1] was “significantly better inhibition effect”, the “germination of Col-0 ecotype seeds” value ([1]; six days after seeding) was “could still inhibit germination of Col-0 ecotype seeds” and the leaf temperature [2] was “still higher than that in the control group”. For the same compound, the leaf temperature (soybean Williams 82) was “still significantly higher than that in the DMSO-sprayed control”, the “micronuclei rate in CHL cells” value [3] was “did not induce an increased micronuclei rate” and the “bacterial toxicity to TA98 and TA100 strains” value [4] was “no obvious bacterial toxicity”.
